Measurements as given in patent US10806871B2, “Inhalable dry powders” (priority 2012, dated 2020).
Read-outs that look alike come from different tables or passages of the source.

Tests used:
[1] = listing, cf. PCT Publication WO/2004/062643; cited from earlier work
[2] = listing; cited from earlier work
[3] = cited from earlier work
[4] = Solubility of therapeutic agents in water or ethanol

| SMILES | Solubility In Water [1] | Bioavailability [2] | also measured |
| --- | --- | --- | --- |
| CC(=O)N1CCN(c2ccc(OCC3COC(Cn4ccnc4)(c4ccc(Cl)cc4Cl)O3)cc2)CC1 (centres unmarked) [Ketoconazole] | Insoluble | – | – |
| CC(CCc1ccc(O)cc1)NCCc1ccc(O)c(O)c1 (centres unmarked) [Dobutamine] | Sparingly | – | – |
| CCOC(=O)C1=C(COCCN)NC(C)=C(C(=O)OC)C1c1ccccc1Cl (centres unmarked) [Amlodipine] | Slightly | – | – |
| Cn1cnc([N+](=O)[O-])c1Sc1ncnc2nc[nH]c12 [Azathioprine] | Insoluble | – | – |
| CCn1cc(C(=O)O)c(=O)c2cc(F)c(N3CCNCC3)cc21 [Norfloxacin] | – | Low | – |
| COc1cc2nc(N3CCN(C(=O)C4COc5ccccc5O4)CC3)nc(N)c2cc1OC (centres unmarked) [Doxazosin] | Slightly | – | – |
| COC(=O)C1=C(C)NC(C)=C(C(=O)OC(C)C)C1c1cccc2nonc12 (centres unmarked) [Isradipine] | Insoluble | Low | – |
| O=C(O)Cc1ccccc1Nc1c(Cl)cccc1Cl [Diclofenac sodium] | Sparingly | – | – |
| CO[C@]12C[C@@H](COC(=O)c3cncc(Br)c3)CN(C)[C@@H]1Cc1cn(C)c3cccc2c13 [Nicergoline] | Insoluble | – | – |
| Cc1cccc(Nc2ccccc2C(=O)O)c1C [Mefenamic acid] | Slightly | – | – |
| Nc1ccc(O)c(C(=O)O)c1 [Mesalamine] | – | Low | – |
| CC1CC(OC(=O)C(O)c2ccccc2)CC(C)(C)C1 (centres unmarked) [Cyclandelate] | Insoluble | Low | – |
| CCC(C)n1ncn(-c2ccc(N3CCN(c4ccc(OCC5COC(Cn6cncn6)(c6ccc(Cl)cc6Cl)O5)cc4)CC3)cc2)c1=O (centres unmarked) [Itraconzole] | Insoluble | – | – |
| CCc1cccc2c3c([nH]c12)C(CC)(CC(=O)O)OCC3 (centres unmarked) [Etodolac] | Insoluble | – | – |
| CC(=O)OC[C@H]1O[C@@H]([S-])[C@H](OC(C)=O)[C@@H](OC(C)=O)[C@@H]1OC(C)=O.CCP(CC)CC.[Au+] [Auranofin] | Slightly soluble | Low | – |
| OCCN(CCO)c1nc(N2CCCCC2)c2nc(N(CCO)CCO)nc(N3CCCCC3)c2n1 [Dipyridamole] | Slightly | – | – |
| C[C@]12CC[C@H]3[C@@H](CCC4=CC(=O)CC[C@@]43C)[C@@H]1CC[C@@H]2O [Testosterone] | Insoluble | Low | – |
| CC(=O)O[C@H]1C(=O)[C@@]2(C)[C@H]([C@H](OC(=O)c3ccccc3)[C@]3(O)C[C@H](OC(=O)[C@H](O)[C@@H](NC(=O)c4ccccc4)c4ccccc4)C(C)=C1C3(C)C)[C@]1(OC(C)=O)CO[C@@H]1C[C@@H]2O [Paclitaxel] | Insoluble | – | – |
| CC[C@H](C)C(=O)O[C@H]1C[C@@H](C)C=C2C=C[C@H](C)[C@H](CC[C@@H]3C[C@@H](O)CC(=O)O3)[C@H]21 [Lovastatin] | Insoluble | – | – |
| CC(C)(C)NC(=O)[C@H]1CC[C@H]2[C@@H]3CC[C@H]4NC(=O)C=C[C@]4(C)[C@H]3CC[C@]12C [Finasteride] | Insoluble | – | – |
| CN1C(C(=O)Nc2ccccn2)=C(O)c2ccccc2S1(=O)=O [Piroxicam] | Sparingly | – | – |
| Cc1ncc2n1-c1ccc(Cl)cc1C(c1ccccc1F)=NC2 [Midazolam] | Insoluble | – | – |

| SMILES | Solubility In Water [1] | Bioavailability [2] | also measured |
| --- | --- | --- | --- |
| Cc1nc2n(c(=O)c1CCN1CCC(c3noc4cc(F)ccc34)CC1)CCCC2 [Risperidone] | Insoluble | – | – |
| C[C@@](Cc1ccc(O)c(O)c1)(NN)C(=O)O [Carbidopa] | Slightly | – | – |
| NC(N)=Nc1nc(CSCCC(N)=NS(N)(=O)=O)cs1 [Famotidine] | – | Low | – |
| CCOC(=O)[C@H](CCc1ccccc1)N[C@@H](C)C(=O)N1[C@H](C(=O)O)C[C@@H]2CCC[C@@H]21 [Ramipril] | Insoluble | – | – |
| OC[C@@H](O)[C@@H](O)[C@H](O)[C@H](O)CO [mannitol] | – | – | solubility in water [3]: about 182 g/L |
| CN1CCN(C2=Nc3cc(Cl)ccc3Nc3ccccc32)CC1 [Clozapine] | Slightly | – | – |
| O=C1NC(=O)C(c2ccccc2)(c2ccccc2)N1 [Phenytoin] | Insoluble | – | – |
| Cc1c(OCC(F)(F)F)ccnc1C[S+]([O-])c1nc2ccccc2[nH]1 (centres unmarked) [Lansoprazole] | Insoluble | – | – |
| CN1CCC[C@@H]1CCO[C@](C)(c1ccccc1)c1ccc(Cl)cc1 [Clemastine] | Slightly soluble | Low | – |
| CN1CCCC(n2nc(Cc3ccc(Cl)cc3)c3ccccc3c2=O)CC1 (centres unmarked) [Azelastine] | Insoluble | – | – |
| C[C@@H]1C[C@H]2[C@@H]3CCC4=CC(=O)C=C[C@]4(C)[C@@]3(Cl)[C@@H](O)C[C@]2(C)[C@@]1(O)C(=O)CCl [Mometasone] | Insoluble | – | – |
| COc1ccc2[nH]c([S+]([O-])Cc3ncc(C)c(OC)c3C)nc2c1 (centres unmarked) [Omeprazole] | Slightly | – | – |
| CC[C@H]1OC(=O)[C@H](C)[C@@H](O[C@H]2C[C@@](C)(OC)[C@@H](O)[C@H](C)O2)[C@H](C)[C@@H](O[C@@H]2O[C@H](C)C[C@H](N(C)C)[C@H]2O)[C@](C)(OC)C[C@@H](C)C(=O)[C@H](C)[C@@H](O)[C@]1(C)O [Clarithromycin] | Insoluble | – | – |
| CC(C(=O)O)c1ccc(-c2ccccc2)c(F)c1 (centres unmarked) [Flurbiprofen] | Slightly | – | – |
| COc1cc(N)c(Cl)cc1C(=O)NC1CCN(CCCOc2ccc(F)cc2)CC1OC (centres unmarked) [Cisapride] | Insoluble | Low | – |
| O=[N+]([O-])O[C@H]1CO[C@H]2[C@@H]1OC[C@H]2O[N+](=O)[O-] [Isosorbide dinitrate] | – | Low | – |
| Cc1ccc(-c2nc3ccc(C)cn3c2CC(=O)N(C)C)cc1 [Zolpidem] | Sparingly | – | – |
| OC(CCN1CCCCC1)(c1ccccc1)C1CC2C=CC1C2 (centres unmarked) [Biperiden] | Sparingly soluble | Low | – |
| CCCCCc1cc(O)c2c(c1)OC(C)(C)[C@@H]1CCC(C)=C[C@@H]21 [Dronabinol] | Insoluble | Low | – |
| OC[C@H]1O[C@H](O[C@H]2O[C@H](CO)[C@@H](O)[C@H](O)[C@H]2O)[C@H](O)[C@@H](O)[C@@H]1O [trehalose] | – | – | solubility ([3]; at 20 C): 68.9 g per 100 g of water |
| CN[C@H]1CC[C@@H](c2ccc(Cl)c(Cl)c2)c2ccccc21 [Sertraline] | – | Low | – |
| CC(C)(C)c1ccc(C(O)CCCN2CCC(C(O)(c3ccccc3)c3ccccc3)CC2)cc1 (centres unmarked) [Terfenadine] | Slightly | – | – |

| SMILES | Solubility In Water [1] | Bioavailability [2] | also measured |
| --- | --- | --- | --- |
| OC(Cn1cncn1)(Cn1cncn1)c1ccc(F)cc1F [Fluconazole] | Slightly | – | – |
| OCCN1CCN(CCCN2c3ccccc3Sc3ccc(Cl)cc32)CC1 [Perphenazine] | – | Low | – |
| NC(=O)N1c2ccccc2C=Cc2ccccc21 [Carbamazepine] | Insoluble | – | – |
| COc1cc([C@@H]2c3cc4c(cc3[C@@H](O[C@@H]3O[C@@H]5CO[C@@H](C)O[C@H]5[C@H](O)[C@H]3O)[C@H]3COC(=O)[C@H]23)OCO4)cc(OC)c1O [Etoposide] | Very Slightly | – | – |
| CCCC1O[C@@H]2C[C@H]3[C@@H]4CCC5=CC(=O)C=C[C@]5(C)[C@H]4[C@@H](O)C[C@]3(C)[C@]2(C(=O)CO)O1 (some centres unmarked) [Budesonide] | – | Low | – |
| OCCN1CCN(CCCN2c3ccccc3Sc3ccc(C(F)(F)F)cc32)CC1 [Fluphenazine] | Insoluble | Low | – |
| CO/N=C(\C(=O)N[C@@H]1C(=O)N2C(C(=O)O)=C(COC(C)=O)CS[C@H]12)c1csc(N)n1 [Cefotaxime] | Sparingly | – | – |
| CC(C)Cc1ccc(C(C)C(=O)O)cc1 (centres unmarked) [Ibuprofen] | Insoluble | – | – |
| Cc1nnc2n1-c1ccc(Cl)cc1C(c1ccccc1)=NC2 [Alprazolam] | Insoluble | – | – |
| C=CCC1(CC(C)C)C(=O)NC(=O)NC1=O [Butalbital] | Insoluble | – | – |
| CC1=C(/C=C/C(C)=C/C=C/C(C)=C\C(=O)O)C(C)(C)CCC1 [Isotretinoin] | Insoluble | – | – |
| COc1ccc2cc(CCC(C)=O)ccc2c1 [Nabumetone] | Insoluble | Low | – |
| C#C[C@]1(O)CC[C@H]2[C@@H]3CCC4=Cc5oncc5C[C@]4(C)[C@H]3CC[C@@]21C [Danazol] | – | Low | – |
| CC(=O)S[C@@H]1CC2=CC(=O)CC[C@]2(C)[C@H]2CC[C@@]3(C)[C@@H](CC[C@@]34CCC(=O)O4)[C@H]12 [Spironolactone] | Insoluble | Low | – |
| Nc1nnc(-c2cccc(Cl)c2Cl)c(N)n1 [Lamotrigine] | Slightly | – | – |
| COc1ccc(CCN2CCC(Nc3nc4ccccc4n3Cc3ccc(F)cc3)CC2)cc1 [Astemizol] | Insoluble | Low-moderate | – |
| CCOC(=O)[C@H](CCc1ccccc1)N[C@@H](C)C(=O)N1CCC[C@H]1C(=O)O [Enalapril] | Sparingly | – | – |
| COCCCC/C(=N\OCCN)c1ccc(C(F)(F)F)cc1 [Fluvoxamine] | Sparingly | – | – |
| CCCC(CCC)C(=O)O [Divalproex] | Slightly | – | – |
| OCc1cc(C(O)CNCCCCCCOCCCCc2ccccc2)ccc1O (centres unmarked) [salmeterol xinafoate] | – | – | solubility in ethanol [4]: slightly soluble in ethanol; solubility in water [4]: practically insoluble in water |
| CCOC(=O)C1=C(C)NC(C)=C(C(=O)OC)C1c1cccc(Cl)c1Cl (centres unmarked) [Felodipine] | Insoluble | Low | – |
| CN(C/C=C/C#CC(C)(C)C)Cc1cccc2ccccc12 [Terbinafine] | Slightly | – | – |
